Each structure is given as a SMILES string.

This series concerns Liver microsomes. The conditions noted are these: human.
In turn, `N#Cc1cc(N2CCN(CCN3CCC(C(F)(F)F)CC3)C2=O)ccc1F` came in with a CL of 9.1 mL/min/g.
The result for `N#Cc1cccc(N2CCN(CCN3Cc4ccccc4C3)C2=O)c1` reads 1.6 mL/min/g.
`O=C1N(CCN2Cc3ccccc3C2)CCN1c1cccc(Cl)c1` displayed a CL of 8.9 mL/min/g.
The result for `O=C1N(CCN2CCC(C(F)(F)F)CC2)CCN1c1cccc(Cl)c1` reads 17.6 mL/min/g.
To `CC(C)N1CCN(CCN2CCN(c3cccc(C#N)c3)C2=O)CC1` belongs less than 0.5 mL/min/g.
